Reference: PubChem BioAssay AID248 (DTP/NCI, 2004)
Several values for one entry are separate records, joined by “and”; a condition that tells them apart may be missing. Identical values can stand only once. Toxic doses and inconclusive results are not listed. Rule as the data show it: active = T/C of 150% or more; inactive = T/C below 125%.

Test system: L1210 leukemia ip in BDF1 mice, survival T/C
Test: NCI In Vivo Anticancer Drug Screen. Data for tumor model L1210 Leukemia (intraperitoneal) in B6D2F1 (BDF1) mice
Conditions: higher = longer survival
How it was run: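 Read-out is survival time, reported as the treated-group measurement over the vehicle-control measurement.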

[1] = endpoint: mean survival time, dose: 100.0 mg/kg/injection, schedule: Q01DX001 (ip), vehicle: carboxymethylcellulose (CMC)
[2] = endpoint: mean survival time, dose: 100.0 mg/kg/injection, schedule: Q01DX009 (ip), vehicle: saline with Tween-80
[3] = endpoint: mean survival time, dose: 100.0 mg/kg/injection, schedule: Q04DX003 (ip), vehicle: saline with Tween-80
[4] = endpoint: mean survival time, dose: 200.0 mg/kg/injection, schedule: Q01DX009 (ip), vehicle: saline with Tween-80
[5] = endpoint: mean survival time, dose: 200.0 mg/kg/injection, schedule: Q04DX003 (ip), vehicle: saline with Tween-80
[6] = endpoint: mean survival time, dose: 400.0 mg/kg/injection, schedule: Q01DX009 (ip), vehicle: saline with Tween-80
[7] = endpoint: mean survival time, dose: 400.0 mg/kg/injection, schedule: Q04DX003 (ip), vehicle: saline with Tween-80
[8] = endpoint: mean survival time, dose: 400.0 mg/kg/injection, schedule: Q04DX002 (ip), vehicle: saline with Tween-80
[9] = endpoint: mean survival time, dose: 50.0 mg/kg/injection, schedule: Q01DX009 (ip), vehicle: saline with Tween-80

Measured: T/C

ClCCN(CCCl)CCN1c2ccccc2Sc2ccccc21
inactive: endpoint: mean survival time, dose: 9.37 mg/kg/injection, schedule: Q01DX009 (ip), vehicle: Klucel (hydroxypropylcellulose) (HPC) 114 % of control | endpoint: mean survival time, dose: 12.5 mg/kg/injection, schedule: Q01DX001 (ip), vehicle: Klucel (hydroxypropylcellulose) (HPC) 114 % of control | endpoint: mean survival time, dose: 12.5 mg/kg/injection, schedule: Q04DX003 (ip), vehicle: saline with Tween-80 103 % of control | endpoint: mean survival time, dose: 16.5 mg/kg/injection, schedule: Q01DX001 (ip), vehicle: Klucel (hydroxypropylcellulose) (HPC) 100 % of control and 111 % of control | endpoint: mean survival time, dose: 18.75 mg/kg/injection, schedule: Q01DX009 (ip), vehicle: Klucel (hydroxypropylcellulose) (HPC) 106 % of control | endpoint: mean survival time, dose: 25.0 mg/kg/injection, schedule: Q01DX001 (ip), vehicle: Klucel (hydroxypropylcellulose) (HPC) 95 % of control and 112 % of control | endpoint: mean survival time, dose: 25.0 mg/kg/injection, schedule: Q04DX003 (ip), vehicle: saline with Tween-80 108 % of control | endpoint: mean survival time, dose: 29.0 mg/kg/injection, schedule: Q01DX015 (ip), vehicle: carboxymethylcellulose (CMC) 102 % of control | endpoint: mean survival time, dose: 37.5 mg/kg/injection, schedule: Q01DX001 (ip), vehicle: Klucel (hydroxypropylcellulose) (HPC) 101 % of control and 122 % of control | endpoint: mean survival time, dose: 37.5 mg/kg/injection, schedule: Q01DX009 (ip), vehicle: Klucel (hydroxypropylcellulose) (HPC) 89 % of control | endpoint: mean survival time, dose: 50.0 mg/kg/injection, schedule: Q04DX003 (ip), vehicle: saline with Tween-80 92 % of control | endpoint: mean survival time, dose: 85.0 mg/kg/injection, schedule: Q04DX003 (ip), vehicle: Klucel (hydroxypropylcellulose) (HPC) 115 % of control | endpoint: mean survival time, dose: 88.8 mg/kg/injection, schedule: Q01DX001 (ip), vehicle: carboxymethylcellulose (CMC) 115 % of control | endpoint: mean survival time, dose: 100.0 mg/kg/injection, schedule: Q01DX001 (ip), vehicle: Klucel (hydroxypropylcellulose) (HPC) 119 % of control | [1] 104 % of control | endpoint: mean survival time, dose: 133.0 mg/kg/injection, schedule: Q01DX001 (ip), vehicle: carboxymethylcellulose (CMC) 113 % of control and 115 % of control

CCCC(C)C(C(=O)O)c1ccccc1 (stereo not given)
inactive: [2] 102 % of control | [3] 117 % of control | [4] 104 % of control | [5] 100 % of control | [6] 100 % of control | [7] 99 % of control

CC(=O)[OH2+].CC(=O)[OH2+].[O-]c1ccc2ccccc2c1CN1CCCCC1.[O-]c1ccc2ccccc2c1CN1CCCCC1.[O]=[U+2]=[O].[O]=[U+2]=[O]
inactive: endpoint: mean survival time, dose: 5.0 mg/kg/injection, schedule: Q01DX001 (ip), vehicle: other 105 % of control | endpoint: mean survival time, dose: 10.0 mg/kg/injection, schedule: Q01DX001 (ip), vehicle: other 111 % of control

COc1cccc(C=NC2CC(C)CCC2C)c1OC (stereo not given)
inactive: endpoint: mean survival time, dose: 50.0 mg/kg/injection, schedule: Q04DX002 (ip), vehicle: saline with Tween-80 90 % of control | endpoint: mean survival time, dose: 100.0 mg/kg/injection, schedule: Q04DX002 (ip), vehicle: saline with Tween-80 93 % of control | endpoint: mean survival time, dose: 200.0 mg/kg/injection, schedule: Q04DX002 (ip), vehicle: saline with Tween-80 87 % of control | [8] 90 % of control

CC1OC(OC2CC(O)C3(CO)C4C(O)CC5(C)C(C6=CC(=O)OC6)CCC5(O)C4CCC3(O)C2)C(O)C(O)C1O (stereo not given)
inactive: endpoint: mean survival time, dose: 0.5 mg/kg/injection, schedule: Q01DX009 (ip), vehicle: saline 100 % of control | endpoint: mean survival time, dose: 1.0 mg/kg/injection, schedule: Q01DX009 (ip), vehicle: saline 121 % of control | endpoint: mean survival time, dose: 1.25 mg/kg/injection, schedule: Q01DX001 (ip), vehicle: saline 100 % of control | endpoint: mean survival time, dose: 2.0 mg/kg/injection, schedule: Q01DX009 (ip), vehicle: saline 113 % of control | endpoint: mean survival time, dose: 2.5 mg/kg/injection, schedule: Q01DX001 (ip), vehicle: saline 104 % of control | endpoint: mean survival time, dose: 4.0 mg/kg/injection, schedule: Q01DX009 (ip), vehicle: saline 106 % of control | endpoint: mean survival time, dose: 5.0 mg/kg/injection, schedule: Q01DX001 (ip), vehicle: saline 101 % of control | endpoint: mean survival time, dose: 6.25 mg/kg/injection, schedule: Q01DX001 (ip), vehicle: saline 105 % of control | endpoint: mean survival time, dose: 12.5 mg/kg/injection, schedule: Q01DX001 (ip), vehicle: saline 106 % of control | endpoint: median survival time, dose: 1.0 mg/kg/injection, schedule: Q01DX005 (ip), vehicle: water 105 % of control | endpoint: median survival time, dose: 2.0 mg/kg/injection, schedule: Q01DX005 (ip), vehicle: water 104 % of control | endpoint: median survival time, dose: 4.0 mg/kg/injection, schedule: Q01DX005 (ip), vehicle: water 109 % of control

C(=C1\CCc2cc3ccccc3nc21)/c1ccccc1
inactive: [9] 98 % of control | [2] 95 % of control | [4] 88 % of control

O=C(O)CC(NCc1ccccc1)C(=O)O (stereo not given)
inactive: [2] 93 % of control | [4] 91 % of control | [6] 93 % of control

COC(=O)[C@H]1[C@H]2C[C@@H]3c4[nH]c5ccccc5c4CCN3C[C@H]2C[C@@H](OC(=O)c2cc(OC)c(OC)c(OC)c2)[C@@H]1OC
inactive: endpoint: mean survival time, dose: 0.23 mg/kg/injection, schedule: Q01DX009 (ip), vehicle: Klucel (hydroxypropylcellulose) (HPC) 93 % of control | endpoint: mean survival time, dose: 0.23 mg/kg/injection, schedule: Q04DX003 (ip), vehicle: saline 95 % of control | endpoint: mean survival time, dose: 0.46 mg/kg/injection, schedule: Q01DX009 (ip), vehicle: Klucel (hydroxypropylcellulose) (HPC) 90 % of control | endpoint: mean survival time, dose: 0.46 mg/kg/injection, schedule: Q04DX003 (ip), vehicle: saline 104 % of control | endpoint: mean survival time, dose: 0.93 mg/kg/injection, schedule: Q01DX009 (ip), vehicle: Klucel (hydroxypropylcellulose) (HPC) 101 % of control | endpoint: mean survival time, dose: 0.93 mg/kg/injection, schedule: Q04DX003 (ip), vehicle: saline 112 % of control | endpoint: mean survival time, dose: 1.87 mg/kg/injection, schedule: Q01DX009 (ip), vehicle: Klucel (hydroxypropylcellulose) (HPC) 88 % of control | endpoint: mean survival time, dose: 1.87 mg/kg/injection, schedule: Q04DX003 (ip), vehicle: saline 98 % of control | endpoint: mean survival time, dose: 3.75 mg/kg/injection, schedule: Q04DX003 (ip), vehicle: saline 101 % of control

COc1ccc(Cl)cc1NC(=O)c1cccc(Cl)c1
inactive: endpoint: mean survival time, dose: 100.0 mg/kg/injection, schedule: Q01DX009 (ip), vehicle: Klucel (hydroxypropylcellulose) (HPC) 110 % of control | endpoint: mean survival time, dose: 200.0 mg/kg/injection, schedule: Q01DX009 (ip), vehicle: Klucel (hydroxypropylcellulose) (HPC) 110 % of control | endpoint: mean survival time, dose: 400.0 mg/kg/injection, schedule: Q01DX009 (ip), vehicle: Klucel (hydroxypropylcellulose) (HPC) 104 % of control

CCCCC(CCCC)C(=O)O
inactive: [1] 111 % of control | endpoint: mean survival time, dose: 200.0 mg/kg/injection, schedule: Q01DX001 (ip), vehicle: carboxymethylcellulose (CMC) 92 % of control | endpoint: mean survival time, dose: 400.0 mg/kg/injection, schedule: Q01DX001 (ip), vehicle: carboxymethylcellulose (CMC) 101 % of control

CCOC(=O)CC(=O)c1ccc(C(=O)CC(=O)O)cc1 (tested in a mixture with another compound)
inactive: endpoint: mean survival time, dose: 25.6 mg/kg/injection, schedule: Q04DX002 (ip), vehicle: saline with Tween-80 87 % of control | [9] 89 % of control | endpoint: mean survival time, dose: 64.0 mg/kg/injection, schedule: Q04DX002 (ip), vehicle: saline with Tween-80 95 % of control | [2] 96 % of control | [3] 90 % of control | endpoint: mean survival time, dose: 160.0 mg/kg/injection, schedule: Q04DX002 (ip), vehicle: saline with Tween-80 91 % of control | [4] 88 % of control | [5] 87 % of control | [8] 87 % of control

CC(C)NP(=O)(NC(C)C)OC1CC(C)(C)N(O)C(C)(C)C1
inactive: endpoint: mean survival time, dose: 6.25 mg/kg/injection, schedule: Q01DX001 (ip), vehicle: water 92 % of control | endpoint: mean survival time, dose: 12.5 mg/kg/injection, schedule: Q01DX001 (ip), vehicle: water 96 % of control | endpoint: mean survival time, dose: 25.0 mg/kg/injection, schedule: Q01DX001 (ip), vehicle: water 99 % of control | endpoint: mean survival time, dose: 50.0 mg/kg/injection, schedule: Q01DX001 (ip), vehicle: water 94 % of control

COc1cc(/C(C)=N\N(C)C)ccc1O
inactive: endpoint: mean survival time, dose: 50.0 mg/kg/injection, schedule: Q01DX001 (ip), vehicle: saline 100 % of control | endpoint: mean survival time, dose: 100.0 mg/kg/injection, schedule: Q01DX001 (ip), vehicle: saline 96 % of control | endpoint: mean survival time, dose: 200.0 mg/kg/injection, schedule: Q01DX001 (ip), vehicle: saline 100 % of control | endpoint: mean survival time, dose: 400.0 mg/kg/injection, schedule: Q01DX001 (ip), vehicle: saline 96 % of control

CC1(C)C2CC=C(N3CCCCC3)C1C2 (stereo not given)
inactive: [3] 96 % of control | [5] 96 % of control | [7] 98 % of control

O=C(O)/C(=C\c1[nH]c(=O)[nH]c(=O)c1Br)NC(=O)c1ccccc1
inactive: [3] 104 % of control | [5] 103 % of control | [7] 101 % of control

O=C1OC(=O)C2CC(Br)C(Br)CC12 (stereo not given)
inactive: [2] 92 % of control | [3] 94 % of control and 102 % of control | [4] 89 % of control | [5] 94 % of control | [6] 89 % of control | [7] 91 % of control and 93 % of control
